Literature values as cited in patent publication US11804282B1, “Systems and methods for drug clustering” (nference, Inc., priority 2018, dated 2023).

Assays:
[1] = test system: distinct purified proteins; settings: proteome-wide screening data (FIG. 3 inset)
[2] = molecular target: VEGFR2 protein (Homo sapiens, UniProt P35968); settings: poly-protein screening (FIG. 4 inset)
Sequence of VEGFR2 protein (P35968 20-1356): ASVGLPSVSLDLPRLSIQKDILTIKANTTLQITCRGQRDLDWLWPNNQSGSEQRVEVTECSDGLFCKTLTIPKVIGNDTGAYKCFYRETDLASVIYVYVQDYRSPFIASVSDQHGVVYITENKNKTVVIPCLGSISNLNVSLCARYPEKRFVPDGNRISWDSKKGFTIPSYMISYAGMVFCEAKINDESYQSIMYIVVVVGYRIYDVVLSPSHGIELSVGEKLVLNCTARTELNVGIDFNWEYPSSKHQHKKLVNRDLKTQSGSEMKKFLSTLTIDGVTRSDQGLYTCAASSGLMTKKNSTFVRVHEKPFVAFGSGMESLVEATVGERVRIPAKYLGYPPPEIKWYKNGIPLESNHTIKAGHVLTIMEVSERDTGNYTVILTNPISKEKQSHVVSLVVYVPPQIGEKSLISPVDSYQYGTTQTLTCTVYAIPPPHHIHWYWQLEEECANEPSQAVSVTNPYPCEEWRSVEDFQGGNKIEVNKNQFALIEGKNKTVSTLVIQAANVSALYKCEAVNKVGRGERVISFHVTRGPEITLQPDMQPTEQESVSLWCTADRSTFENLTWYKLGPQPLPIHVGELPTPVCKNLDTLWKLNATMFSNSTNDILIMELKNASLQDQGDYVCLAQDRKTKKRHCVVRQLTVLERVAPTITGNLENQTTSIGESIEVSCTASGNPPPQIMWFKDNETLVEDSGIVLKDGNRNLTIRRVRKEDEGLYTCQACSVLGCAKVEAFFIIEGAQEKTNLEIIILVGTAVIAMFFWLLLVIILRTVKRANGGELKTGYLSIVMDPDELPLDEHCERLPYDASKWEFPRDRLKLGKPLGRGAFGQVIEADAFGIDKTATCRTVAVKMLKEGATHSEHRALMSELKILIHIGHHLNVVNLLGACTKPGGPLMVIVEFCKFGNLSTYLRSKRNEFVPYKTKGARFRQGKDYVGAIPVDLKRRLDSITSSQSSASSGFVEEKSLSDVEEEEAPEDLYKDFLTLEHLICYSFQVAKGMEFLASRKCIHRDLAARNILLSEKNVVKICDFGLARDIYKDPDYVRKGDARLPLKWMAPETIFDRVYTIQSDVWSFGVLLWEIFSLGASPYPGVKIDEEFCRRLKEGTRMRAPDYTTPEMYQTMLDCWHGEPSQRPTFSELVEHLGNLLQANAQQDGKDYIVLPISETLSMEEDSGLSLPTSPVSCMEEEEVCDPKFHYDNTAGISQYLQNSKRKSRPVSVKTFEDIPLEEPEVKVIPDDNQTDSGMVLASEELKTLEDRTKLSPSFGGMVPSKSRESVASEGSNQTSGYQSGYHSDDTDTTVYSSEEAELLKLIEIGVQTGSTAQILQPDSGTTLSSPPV

affinity to the VEGFR2 protein [2]: almost no affinity
Compound: Cc1ccc(NC(=O)c2ccc(CN3CCN(C)CC3)cc2)cc1Nc1nccc(-c2cccnc2)n1 [imatinib]
number of distinct purified proteins bound [1]: less than 50 distinct purified proteins
